Measured values from patent US4169197A, “6-Deoxyneamines aminoglycoside compounds” (The Upjohn Company, priority 1978, dated 1979).
≈ marks a conversion by molar mass, not a printed value. Read-outs that look alike come from different tables or passages of the source.

What was measured:
Assay type in all cases: cell-based
P. vulgaris UC 93 [1] = assay: standard disc plate assay, zones of inhibition; settings: Proteus vulgaris, UC93, 1 mg/ml, 12.5 mm paper discs, read-out: Zones of Inhibition
Description: (§1) The compounds of formulas (V, VII, IX, XI, XIV, XVI, and XIX) are active as antibacterials and can be used in various environments to erradicate or control susceptible microorganisms. Tables I and II set forth the in vitro antibacterial test results for representative compounds of the present invention. The results were obtained with a standard disc plate assay using 12.5 mm paper discs.

S. gallinarum UC 265 = assay: standard disc plate assay, zones of inhibition; settings: Salmonella enterica, 12.5 mm paper discs, read-out: Zones of Inhibition; for zone of inhibition at 1000 µg/mL: 1 mg/ml; for zone of inhibition at 100 µg/mL: 0.1 mg/ml
Description: as §1

B. cereus UC 3145 = assay: standard disc plate assay, zones of inhibition; settings: Bacillus cereus, 12.5 mm paper discs
Description: as §1

S. aureus UC 80 = assay: standard disc plate assay, zones of inhibition; settings: Staphylococcus aureus, 12.5 mm paper discs; for zone of inhibition at 100 µg/mL: 0.1 mg/ml
Description: as §1

E. coli UC 51 = assay: standard disc plate assay, zones of inhibition; settings: Escherichia coli, UC51, 12.5 mm paper discs, read-out: Zones of Inhibition; for zone of inhibition at 1000 µg/mL: 1 mg/ml; for zone of inhibition at 100 µg/mL: 0.1 mg/ml
Description: as §1

B. subtilis UC 564 = assay: standard disc plate assay, zones of inhibition; settings: Bacillus subtilis, UC564, 12.5 mm paper discs, read-out: Zones of Inhibition; for zone of inhibition at 100 µg/mL: 0.1 mg/ml; for zone of inhibition at 1000 µg/mL: 1 mg/ml
Description: as §1

S. schottmuelleri UC 126 [2] = assay: standard disc plate assay, zones of inhibition; settings: 1 mg/ml, 12.5 mm paper discs
Description: as §1

K. pneumoniae UC 57 = assay: standard disc plate assay, zones of inhibition; settings: Klebsiella pneumoniae, UC57, 12.5 mm paper discs, read-out: Zones of Inhibition; for zone of inhibition at 1000 µg/mL: 1 mg/ml; for zone of inhibition at 100 µg/mL: 0.1 mg/ml
Description: as §1

P. vulgaris UC 93 [3] = assay: standard microplate test in BHI Agar; settings: Proteus vulgaris, UC93; BHI Agar, 37°, 20 hours; Table IV; read-out: Minimal Inhibitory Concentration
Protocol: (§2) The compounds VII, XI, XVβ, XVα and XVI were tested in a standard microplate test in BHI (Brain Heart Infusion) Agar at a concentration of 1 mg./ml. and dilutions thereof at 37° incubation temperature. The end points are read out 20 hours. BHI Agar is supplied by Difco Laboratories, Detroit, Mich.

K. pneumoniae UC 58 = assay: standard microplate test in BHI Agar; settings: Klebsiella pneumoniae, read-out: Minimal Inhibitory Concentration
Protocol: as §2

S. pneumoniae I UC 41 = assay: standard microplate test in BHI Agar; settings: Streptococcus pneumoniae, read-out: Minimal Inhibitory Concentration
Protocol: as §2

S. pyogenes UC 152 = assay: standard microplate test in BHI Agar; settings: Streptococcus pyogenes, read-out: Minimal Inhibitory Concentration
Protocol: as §2

P. mirabilis UC 6671 = assay: standard microplate test in BHI Agar; settings: Proteus mirabilis, UC6671; BHI Agar, 37°, 20 hours; Table IV; read-out: Minimal Inhibitory Concentration
Protocol: as §2

Ps. aeruginosa UC 95 [4] = assay: standard microplate test in BHI Agar; settings: Pseudomonas aeruginosa, UC95; BHI Agar, 37°, 20 hours; Table IV; read-out: Minimal Inhibitory Concentration
Protocol: as §2

S. typhi UC 215 = assay: standard microplate test in BHI Agar; settings: Salmonella enterica, 20 h, read-out: Minimal Inhibitory Concentration
Protocol: as §2

S. aureus UC 76 = assay: standard microplate test in BHI Agar; settings: Staphylococcus aureus, read-out: Minimal Inhibitory Concentration
Protocol: as §2

S. marcescens UC 131 = assay: standard microplate test in BHI Agar; settings: Serratia marcescens, UC131; BHI Agar, 37°, 20 hours; Table IV; read-out: Minimal Inhibitory Concentration
Protocol: as §2

S. faecalis UC 694 = assay: standard microplate test in BHI Agar; settings: Enterococcus faecalis, UC694, 20 h, read-out: Minimal Inhibitory Concentration
Protocol: as §2

S. flexneri UC 143 = assay: standard microplate test in BHI Agar; settings: Shigella flexneri, UC143, 37°, 20 hours, Table IV, read-out: Minimal Inhibitory Concentration
Protocol: as §2

P. rettgeri UC 339 = assay: standard microplate test in BHI Agar; settings: Providencia rettgeri, UC339; BHI Agar, 37°, 20 hours; Table IV; read-out: Minimal Inhibitory Concentration
Protocol: as §2

S. schottmuelleri UC 126 [5] = assay: standard microplate test in BHI Agar; settings: 37°, 20 hours, Table IV, read-out: Minimal Inhibitory Concentration
Protocol: as §2

P. morganii UC 3186 = assay: standard microplate test in BHI Agar; settings: Morganella morganii, read-out: Minimal Inhibitory Concentration
Protocol: as §2

E. coli UC 311 = assay: standard microplate test in BHI Agar; settings: Escherichia coli, UC311; BHI Agar, 37°, 20 hours; Table IV; read-out: Minimal Inhibitory Concentration
Protocol: as §2

Ps. aeruginosa UC 95 [6] = assay: standard disc plate assay, zones of inhibition; settings: Pseudomonas aeruginosa, UC95; 1 mg/ml; 12.5 mm paper discs; Table II; read-out: Zones of Inhibition
Description: as §1

S. lutea UC 130 = assay: standard disc plate assay, zones of inhibition; settings: Micrococcus luteus, UC130, 1 mg/ml, 12.5 mm paper discs, read-out: Zones of Inhibition
Description: as §1

| SMILES | zone of inhibition at 1000 µg/mL (P. vulgaris UC 93 [1]; Table I) | zone of inhibition at 1000 µg/mL (S. gallinarum UC 265; Table I) | zone of inhibition at 1000 µg/mL (E. coli UC 51; Table I) | zone of inhibition at 100 µg/mL (B. subtilis UC 564; Table I) | zone of inhibition at 1000 µg/mL (B. subtilis UC 564; Table I) | zone of inhibition at 1000 µg/mL (S. schottmuelleri UC 126 [2]; Table I) | zone of inhibition at 1000 µg/mL (K. pneumoniae UC 57; Table I) | MIC (P. vulgaris UC 93 [3]) | MIC (P. mirabilis UC 6671) | MIC (Ps. aeruginosa UC 95 [4]) | MIC (S. typhi UC 215) | MIC (S. marcescens UC 131) | MIC (S. faecalis UC 694) | MIC (S. flexneri UC 143) | MIC (P. rettgeri UC 339) | MIC (S. schottmuelleri UC 126 [5]) | MIC (E. coli UC 311) | also measured |
| --- | --- | --- | --- | --- | --- | --- | --- | --- | --- | --- | --- | --- | --- | --- | --- | --- | --- | --- |
| NC[C@H]1O[C@H](O[C@@H]2[C@@H](N)C[C@@H](N)C[C@H]2O[C@@H]2C[C@@H](N)[C@H](O)[C@@H](CO)O2)[C@H](N)[C@@H](O)[C@@H]1O [Compound XVI, O-2,6-diamino-2,6-dideoxy-α-D-glucopyranosyl (1→4)-O-[3-amino-2,3-dideoxy-α-D-arabinohexopyranosyl(1→5)]-2,6-dideoxy-D-streptamine] | 18 mm | 20 mm | 19 mm | 25 mm | 34 mm | 15 mm | 24 mm | > 500 µg/mL | > 500 µg/mL | > 500 µg/mL | > 500 µg/mL | > 500 µg/mL | > 500 µg/mL | > 500 µg/mL | > 500 µg/mL | > 500 µg/mL | > 500 µg/mL | zone of inhibition at 1000 µg/mL (B. cereus UC 3145; UC3145, 1 mg/ml, Table I, read-out: Zones of Inhibition): 18 mm; zone of inhibition at 1000 µg/mL (S. aureus UC 80; UC80, read-out: Zones of Inhibition, 1 mg/ml, Table I): 21 mm; MIC (K. pneumoniae UC 58; UC58, BHI Agar, 37°, 20 hours, Table IV): 125 µg/mL (≈ 277 µM); MIC (S. pneumoniae I UC 41; UC41, BHI Agar, 37°, 20 hours, Table IV (printed D. pneumoniae UC 41)): > 500 µg/mL; MIC (S. pyogenes UC 152; UC152, BHI Agar, 37°, 20 hours, Table IV): 250 µg/mL (≈ 554 µM); MIC (S. aureus UC 76; UC76, BHI Agar, 37°, 20 hours, Table IV): 250 µg/mL (≈ 554 µM); MIC (P. morganii UC 3186; UC3186, BHI Agar, 37°, 20 hours, Table IV): 250 µg/mL (≈ 554 µM) |
| NC[C@H]1O[C@H](O[C@@H]2[C@@H](N)C[C@@H](N)C[C@@H]2O)[C@H](N)[C@@H](O)[C@@H]1O [6-Deoxy-5-epineamine (XI), 6-deoxy-5-epineamine] | – | – | – | – | – | – | – | – | – | – | – | – | – | – | – | – | – | zone of inhibition at 1000 µg/mL (P. vulgaris UC 93 [1]; Table II): 24 mm; zone of inhibition at 100 µg/mL (S. gallinarum UC 265; Table II): 18 mm; zone of inhibition at 1000 µg/mL (S. gallinarum UC 265; Table II): 27 mm; zone of inhibition at 1000 µg/mL (B. cereus UC 3145; UC3145, 1 mg/ml, Table II, read-out: Zones of Inhibition): 22 mm; zone of inhibition at 100 µg/mL (S. aureus UC 80; UC80, Table II, read-out: Zones of Inhibition): 17 mm; zone of inhibition at 1000 µg/mL (S. aureus UC 80; UC80, 1 mg/ml, Table II, read-out: Zones of Inhibition): 24 mm; zone of inhibition at 100 µg/mL (E. coli UC 51; Table II): 16 mm; zone of inhibition at 1000 µg/mL (E. coli UC 51; Table II): 24 mm; zone of inhibition at 1000 µg/mL (Ps. aeruginosa UC 95 [6]): 17 mm; zone of inhibition at 1000 µg/mL (S. lutea UC 130; Table II): 17 mm; zone of inhibition at 100 µg/mL (B. subtilis UC 564; Table II): 26 mm; zone of inhibition at 1000 µg/mL (B. subtilis UC 564; Table II): 35 mm; zone of inhibition at 1000 µg/mL (S. schottmuelleri UC 126 [2]; Table II): 21 mm; zone of inhibition at 100 µg/mL (K. pneumoniae UC 57; Table II): 23 mm; zone of inhibition at 1000 µg/mL (K. pneumoniae UC 57; Table II): 30 mm |
| NC[C@H]1O[C@H](O[C@@H]2[C@@H](N)C[C@@H](N)C[C@H]2O[C@H]2O[C@H](CO)[C@@H](O)[C@H]2O)[C@H](N)[C@@H](O)[C@@H]1O [Compound XVα, O-2,6-diamino-2,6-dideoxy-α-D-glucopyranosyl (1→4)-O-[α-D-ribofuranosyl(1→5)]-2,6-dieoxy-D-streptamine] | 23 mm | 26 mm | 24 mm | 25 mm | 34 mm | 20 mm | 31 mm | 500 µg/mL (≈ 1140 µM) | > 500 µg/mL | > 500 µg/mL | 62.5 µg/mL (≈ 143 µM) | 500 µg/mL (≈ 1140 µM) | > 500 µg/mL | 500 µg/mL (≈ 1140 µM) | > 500 µg/mL | 125 µg/mL (≈ 285 µM) | 250 µg/mL (≈ 570 µM) | zone of inhibition at 100 µg/mL (S. gallinarum UC 265; Table I): 17 mm; zone of inhibition at 1000 µg/mL (B. cereus UC 3145; UC3145, read-out: Zones of Inhibition, 1 mg/ml, Table I): 20 mm; zone of inhibition at 100 µg/mL (S. aureus UC 80; UC80, Table I, read-out: Zones of Inhibition): 17 mm; zone of inhibition at 1000 µg/mL (S. aureus UC 80; UC80, 1 mg/ml, Table I, read-out: Zones of Inhibition): 25 mm; zone of inhibition at 100 µg/mL (E. coli UC 51; Table I): 17 mm; zone of inhibition at 1000 µg/mL (S. lutea UC 130; Table I): 16 mm; zone of inhibition at 100 µg/mL (K. pneumoniae UC 57; Table I): 23 mm; MIC (K. pneumoniae UC 58; UC58, 20 h): 15.6 µg/mL (≈ 35.6 µM); MIC (S. pneumoniae I UC 41; UC41, 20 h): 125 µg/mL (≈ 285 µM); MIC (S. pyogenes UC 152; UC152, 20 h): 31.2 µg/mL (≈ 71.2 µM); MIC (S. aureus UC 76; UC76, 20 h): 125 µg/mL (≈ 285 µM); MIC (P. morganii UC 3186; UC3186, 20 h): 125 µg/mL (≈ 285 µM) |
